# Publication PMC12670405, “Second-Generation AURKA-Targeting PROTACs: Structural Optimization toward in Vivo Degradation in Neuroblastoma” (Journal of Medicinal Chemistry, 2025)
# Where two headings read alike, the source gives them in different places.
# Experiments:
# AURKA = biological target: T1, AURKA (Homo sapiens, UniProt O14965); experiment: AURKA degradation, Simple Western; format: cell-based; set-up: Representative Western blot showing levels of endogenous proteins MDR1, MYCN, AURKA, and CRBN in untreated cell lines; endogenous in cells; host or cells: NGP, IMR-32, SJNB-8, SK-N-BE(2)-C, SK-N-SH, SK-N-AS, SJNB-1, RPE, HEK293T; conditions: for pDC50: AURKA degradation; for DC50: read-out: AURKA DC50;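 on AURKA Degradation 24h @1000nM: measured in NGP neuroblastoma cells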;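 on AURKA Degradation 24h @100nM: measured in NGP neuroblastoma cells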
# T1 sequence (O14965 1-403): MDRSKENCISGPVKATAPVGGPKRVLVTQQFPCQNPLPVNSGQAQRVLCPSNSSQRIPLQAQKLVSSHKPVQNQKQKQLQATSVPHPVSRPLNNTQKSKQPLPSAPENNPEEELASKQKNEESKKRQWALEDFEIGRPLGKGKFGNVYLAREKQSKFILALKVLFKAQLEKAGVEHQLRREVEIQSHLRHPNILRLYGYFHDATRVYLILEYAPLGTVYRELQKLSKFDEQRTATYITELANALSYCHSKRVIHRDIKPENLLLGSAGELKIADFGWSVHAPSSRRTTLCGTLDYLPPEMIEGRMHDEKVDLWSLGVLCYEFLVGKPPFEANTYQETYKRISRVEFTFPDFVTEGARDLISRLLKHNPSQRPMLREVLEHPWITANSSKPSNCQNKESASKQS
# Protocol: Cells were seeded in T-25 flasks at different densities ranging from 1 to 2 million cells per flask and allowed to adhere for 1–2 days. In experiments involving compound treatment, this was done by medium replacement containing the compound(s) of interest in their corresponding concentrations. In competition binding experiments, cells were first pretreated with an excess of MK-5108, thalidomide or MG-132 for 1 h by shaking gently at room temperature prior to addition of SK4454 or SK5527. All samples were normalized to contain the same percentage of DMSO as the negative DMSO controls. Cells were harvested on ice at their respective time points by scraping, washed with ice-cold PBS to collect remaining cells, and centrifuged (2500 rpm, 4 °C). A second washing and centrifugation step was performed prior to collection of the final cell pellets which were then snap-frozen in liquid nitrogen and kept frozen at −80 °C until further processing. Lysis of cell pellets occurred in cold RIPA buffer (0.5% w/v Sodium Deoxycholate, 150 mM NaCl, 50 mM TrisHCl pH 7.5, 0.1% w/v SDS, 1% w/v NP-40) supplemented with protease and phosphatase inhibitors (Roche, #11836145001, #04906845001) by rotating gently at 4 °C for 1h, followed by a centrifugation step for 10 min (10,000 rpm, 4 °C). The supernatant was collected and concentrations of the obtained protein lysates were measured using the Pierce BCA Protein Assay Kit (Thermo Fisher Scientific, #23227).
# Simple Western analyses were performed with the Wes instrument (Bio-Techne) using the 12–230 kDa Wes Separation module and the EZ standard pack reagent 1 (Biotechne, #SM-W001, #PS-ST01EZ-8) following the manufacturer’s protocol. Protein lysates were loaded at 0.8 μg/μL under denaturing conditions (0.2 μg/μL for MYCN detection). Chemiluminescence peaks were generated by the Compass Software (Bio-Techne) and the area under the peaks calculated using the Gaussian fit method. Per lane, quantified data were always normalized to that of the loading control (Vinculin) prior to calculating fold changes relative to the negative DMSO control. Mean fold changes are calculated from 3 individual experiments. A list of the primary and secondary antibodies used can be found in the Supporting Information (Supplementary Table S7).
# Graphs were generated using GraphPad Prism Software (version 10.1.2) or RStudio (R-4.3.2). All dose–response curves were computed on GraphPad Prism using the Variable Slope (four parameters) equation. Absolute half-maximal degradation (DC50), growth inhibitory (GI50) and enzymatic inhibitory (IC50) concentrations, as well as inhibition constants (Ki) were derived from dose–response curves via interpolation. Statistical tests were performed on GraphPad Prism and detailed in the figure legends. Unless otherwise stated, “n” in the figure legends indicates the number of independent experiments conducted at different times.
# NGP = experiment: IncuCyte live-cell imaging, antiproliferative effect; format: cell-based; conditions: Homo sapiens, 72 h
# Text: Human neuroblastoma cell lines NGP, IMR-32, SJNB-8, SK-N-BE(2)-C, SJNB-1, SK-N-SH and SK-N-AS, as well as benign immortalized cell lines RPE and HEK293T were either bought commercially or obtained through research laboratories. […] Screening for mycoplasma contamination occurred routinely on the cells. Human neuroblastoma cell lines SH-SY5Y_shABCB1 & SH-SY5Y_shNTC were generated by transduction with pLKO.1-ABCB1_TRCN0000059683 shRNA (Sigma MISSION SHCLND) or pLKO.1-puro NT shRNA (Sigma MISSION SHC002) vectors respectively (Supplementary Table S6), packaged using Lenti-X293T (Clontech). Transduced cells were selected with 2 μg/mL puromycin. These cells were cultured in DMEM 4.5 g/L D-Glucose, L-Glutamine and 110 mg/L Sodium Pyruvate (Gibco, #11995065) supplemented with 10% fetal bovine serum, 1× Antibiotic-Antimycotic solution (Sigma-Aldrich, #A5955) and 1× MEM nonessential amino acids (Sigma-Aldrich, #M7145). Incubation of all cells occurred at 37 °C and 5% CO2.
# Neuroblastoma cells were seeded in 384-well plates at different densities ranging from 1200 to 5000 cells/well and allowed to adhere overnight. RPE and HEK293T were seeded at 200 and 600 cells/well, respectively. Compound treatment was performed using the D300e Digital Dispenser (Tecan) in duplicate or triplicate and cell confluency was monitored over time using the IncuCyte Live-cell imaging system (Sartorius). […] Mean normalized confluences were calculated from 3 individual experiments.
# All dose–response curves were computed on GraphPad Prism using the Variable Slope (four parameters) equation. Absolute half-maximal degradation (DC50), growth inhibitory (GI50) and enzymatic inhibitory (IC50) concentrations, as well as inhibition constants (Ki) were derived from dose–response curves via interpolation. Statistical tests were performed on GraphPad Prism and detailed in the figure legends. Unless otherwise stated, “n” in the figure legends indicates the number of independent experiments conducted at different times.
SMILES,AURKA Degradation 24h @100nM (AURKA),AURKA Degradation 24h @1000nM (AURKA),pDC50 (AURKA),DC50 (AURKA) [nM],"AURKA degradation activity (in words) (AURKA; NGP, 24 h treatment)","Dmax (AURKA; NGP, 24 h treatment) [%]","GI50 (NGP; read-out: GI50 72h, 72h) [nM]",GI50 (NGP; read-out: pGI50 (converted)) [nM]
O=C1CCC(N2C(=O)c3cccc(N4CCN(C(=O)COCCOCCNC(=O)[C@]5(Cc6cccc(Nc7nccs7)n6)CC[C@@H](Oc6cccc(Cl)c6F)CC5)CC4)c3C2=O)C(=O)N1 (stereo partly drawn) [PROTAC 2],70,81,–,–,–,–,72,72.4
O=C1CCC(N2C(=O)c3ccc(N4CCN(C(=O)CNC(=O)[C@]5(Cc6cccc(Nc7nccs7)n6)CC[C@@H](Oc6cccc(Cl)c6F)CC5)CC4)cc3C2=O)C(=O)N1 (stereo partly drawn) [PROTAC 5],76,75,–,–,–,–,51,51.3
O=C1CCC(N2C(=O)c3ccc(N4CCN(C(=O)COCCNC(=O)[C@]5(Cc6cccc(Nc7nccs7)n6)CC[C@@H](Oc6cccc(Cl)c6F)CC5)CC4)cc3C2=O)C(=O)N1 (stereo partly drawn) [PROTAC 7],68,77,–,–,–,–,112,112
O=C1CCC(Nc2ccc(N3CCN(C(=O)[C@]4(Cc5cccc(Nc6nccs6)n5)CC[C@@H](Oc5cccc(Cl)c5F)CC4)CC3)cc2)C(=O)N1 (stereo partly drawn) [PROTAC 12],12,< 0,–,–,failed to reduce AURKA levels and instead led to its upregulation,–,715,708
O=C1CCC(Nc2ccc(N3CCN(CCNC(=O)[C@]4(Cc5cccc(Nc6nccs6)n5)CC[C@@H](Oc5cccc(Cl)c5F)CC4)CC3)cc2)C(=O)N1 (stereo partly drawn) [PROTAC 13],68,91,"7,9",12.5,–,–,30,29.5
O=C1CCC(Nc2ccc(N3CCN(C(=O)COCCOCCNC(=O)[C@]4(Cc5cccc(Nc6nccs6)n5)CC[C@@H](Oc5cccc(Cl)c5F)CC4)CC3)cc2)C(=O)N1 (stereo partly drawn) [PROTAC 16],39,75,–,–,only weak AURKA-degrading activity,–,78,77.6
O=C1CCC(Nc2ccc(N3CCN(CC4CN(C(=O)[C@]5(Cc6cccc(Nc7nccs7)n6)CC[C@@H](Oc6cccc(Cl)c6F)CC5)C4)CC3)cc2)C(=O)N1 (stereo partly drawn) [PROTAC 17],59,88,"7,29",51.1,–,–,39,38.9
O=C1CCC(Nc2ccc(N3CCN(CC4CCN(C(=O)[C@]5(Cc6cccc(Nc7nccs7)n6)CC[C@@H](Oc6cccc(Cl)c6F)CC5)CC4)CC3)c(F)c2)C(=O)N1 (stereo partly drawn) [PROTAC 19],83,93,–,–,–,–,53,52.5
O=C1CCN(c2ccc(N3CCN(C4CCN(C(=O)[C@]5(Cc6cccc(Nc7nccs7)n6)CC[C@@H](Oc6cccc(Cl)c6F)CC5)C4)CC3)nc2)C(=O)N1 (stereo partly drawn) [PROTAC 26],71,71,"8,3",5,–,–,45,44.7

# More lines, main results first:
AURKA Degradation 24h @100nM (AURKA),AURKA Degradation 24h @1000nM (AURKA),pDC50 (AURKA),DC50 (AURKA) [nM],"AURKA degradation activity (in words) (AURKA; NGP, 24 h treatment)","Dmax (AURKA; NGP, 24 h treatment) [%]",SMILES,"GI50 (NGP; read-out: GI50 72h, 72h) [nM]",GI50 (NGP; read-out: pGI50 (converted)) [nM]
76,82,–,–,–,–,O=C1CCC(N2C(=O)c3ccc(N4CCN(CCOCCNC(=O)[C@]5(Cc6cccc(Nc7nccs7)n6)CC[C@@H](Oc6cccc(Cl)c6F)CC5)CC4)cc3C2=O)C(=O)N1 (stereo partly drawn) [PROTAC 6],64,63.1
76,75,–,–,–,–,O=C1CCC(N2C(=O)c3ccc(N4CCN(CCOCCOCCNC(=O)[C@]5(Cc6cccc(Nc7nccs7)n6)CC[C@@H](Oc6cccc(Cl)c6F)CC5)CC4)cc3C2=O)C(=O)N1 (stereo partly drawn) [PROTAC 8],56,56.2
64,83,–,–,–,–,O=C1CCC(N2C(=O)c3ccc(N4CCN(C(=O)COCCOCCNC(=O)[C@]5(Cc6cccc(Nc7nccs7)n6)CC[C@@H](Oc6cccc(Cl)c6F)CC5)CC4)cc3C2=O)C(=O)N1 (stereo partly drawn) [PROTAC 9],112,112
72,80,–,–,–,–,O=C1CCC(N2C(=O)c3ccc(OCCN4CCN(C(=O)[C@]5(Cc6cccc(Nc7nccs7)n6)CC[C@@H](Oc6cccc(Cl)c6F)CC5)CC4)cc3C2=O)C(=O)N1 (stereo partly drawn) [PROTAC 10],52,52.5
78,80,"8,31",4.9,–,–,O=C1CCC(N2C(=O)c3ccc(OCCOCCN4CCN(C(=O)[C@]5(Cc6cccc(Nc7nccs7)n6)CC[C@@H](Oc6cccc(Cl)c6F)CC5)CC4)cc3C2=O)C(=O)N1 (stereo partly drawn) [PROTAC 11],38,38
38,55,–,–,only weak AURKA-degrading activity,–,O=C1CCC(Nc2ccc(N3CCN(C(=O)COCCNC(=O)[C@]4(Cc5cccc(Nc6nccs6)n5)CC[C@@H](Oc5cccc(Cl)c5F)CC4)CC3)cc2)C(=O)N1 (stereo partly drawn) [PROTAC 15],93,93.3
42,59,–,–,weak degradation potency,59,Cc1cc(Nc2ccc(F)c(CC3(C(=O)N4CCC(CN5CCC(c6ccc(CN7CCC(=O)NC7=O)cn6)CC5)CC4)CCN(Cc4cccc(Cl)c4F)CC3)n2)n[nH]1 [PROTAC 30],158,158
80,89,–,–,–,–,Cc1cc(Nc2ccc(F)c(CC3(C(=O)N4CC(CN5CCN(c6ccc(N7CCC(=O)NC7=O)cn6)CC5)C4)CCN(Cc4cccc(Cl)c4F)CC3)n2)n[nH]1 [PROTAC 31],98,97.7
